Test results published in ChEMBL document CHEMBL2202969, “Discovery and evolution of phenoxypiperidine hydroxyamide dual CCR3/H₁ antagonists. Part I” (Bioorg Med Chem Lett, 2012).

Tests used:
Histamine H1 receptor [1] = biological target: T1, Histamine H1 receptor (Homo sapiens, UniProt P35367); test: Displacement of [3H]-pyrilamine from human histamine H1 receptor expressed in recombinant CHOK1 cells after 1 hr; assay type: cell-based, CHO-K1
[2] = biological target: T2, C-C chemokine receptor type 3 (Homo sapiens) (UniProt P51677); test: Displacement of [3H]-4-(2,4-dichloro-3-methylphenoxy)-l'-[4- (methylsulfonyl)benzoyl]-l,4'-bipiperidine from human recombinant CCR3 expressed in CHOK1 cells at 1 uM after 2 hrs by scintillation counting analysis; assay type: cell-based; conditions: CHO-K1
T2 sequence (whole entry): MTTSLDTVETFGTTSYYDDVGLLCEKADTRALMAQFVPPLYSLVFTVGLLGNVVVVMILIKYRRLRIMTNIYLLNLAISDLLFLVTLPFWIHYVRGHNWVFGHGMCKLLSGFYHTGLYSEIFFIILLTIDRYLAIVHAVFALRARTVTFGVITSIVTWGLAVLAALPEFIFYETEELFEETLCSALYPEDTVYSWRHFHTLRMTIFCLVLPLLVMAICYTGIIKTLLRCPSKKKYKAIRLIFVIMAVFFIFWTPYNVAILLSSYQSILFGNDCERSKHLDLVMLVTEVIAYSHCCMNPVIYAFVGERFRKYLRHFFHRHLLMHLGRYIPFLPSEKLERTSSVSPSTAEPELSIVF

physchem = conditions: octanol/water
[3] = biological target: T3, C-C chemokine receptor type 3 (Homo sapiens, UniProt P51677); test: Displacement of [3H]-4-(2,4-dichloro-3-methylphenoxy)-l'-[4- (methylsulfonyl)benzoyl]-l,4'-bipiperidine from human recombinant CCR3 expressed in CHOK1 cells after 2 hrs by scintillation counting analysis; assay type: cell-based, CHO-K1
T3 sequence (P51677 whole entry): T2 sequence (whole entry)

in vitro [4] = conditions: human
in vitro [5] = conditions: rat
[6] = biological target: C-C chemokine receptor type 3 (Homo sapiens) (UniProt P51677); test: Displacement of radioligand from human CCR3 expressed in recombinant CHOK1 cells at 1 uM after 1 hr; conditions: CHO-K1
[7] = biological target: Voltage-gated inwardly rectifying potassium channel KCNH2 (Homo sapiens, UniProt Q12809)
in vivo [8] = conditions: rat
[9] = Oral bioavailability in rat; assay type: ADME, organism-based; conditions: in vivo
in vitro [10] = conditions: rat, hepatocytes
in vivo [11] = conditions: rat; remark: listed apart in the source
in vivo [12] = conditions: rat; remark: listed apart in the source
in vitro [13] = conditions: human, hepatocytes
[14] = biological target: T4, C-C chemokine receptor type 1 (Homo sapiens, UniProt P32246); test: Antagonist activity at CCR1; assay type: functional
T4 sequence (P32246 whole entry): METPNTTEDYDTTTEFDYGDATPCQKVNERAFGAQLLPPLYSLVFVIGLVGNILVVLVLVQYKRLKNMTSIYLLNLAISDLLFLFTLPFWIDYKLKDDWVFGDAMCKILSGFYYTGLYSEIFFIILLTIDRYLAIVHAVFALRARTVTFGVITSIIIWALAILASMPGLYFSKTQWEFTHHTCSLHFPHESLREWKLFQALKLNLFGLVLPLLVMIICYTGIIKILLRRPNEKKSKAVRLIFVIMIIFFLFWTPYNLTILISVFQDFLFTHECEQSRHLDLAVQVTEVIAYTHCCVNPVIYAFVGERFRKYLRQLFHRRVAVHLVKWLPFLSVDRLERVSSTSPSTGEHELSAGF

Histamine H1 receptor [15] = biological target: T1, Histamine H1 receptor; test: Antagonist activity at histamine H1 receptor; assay type: functional

T1 sequence (P35367 whole entry): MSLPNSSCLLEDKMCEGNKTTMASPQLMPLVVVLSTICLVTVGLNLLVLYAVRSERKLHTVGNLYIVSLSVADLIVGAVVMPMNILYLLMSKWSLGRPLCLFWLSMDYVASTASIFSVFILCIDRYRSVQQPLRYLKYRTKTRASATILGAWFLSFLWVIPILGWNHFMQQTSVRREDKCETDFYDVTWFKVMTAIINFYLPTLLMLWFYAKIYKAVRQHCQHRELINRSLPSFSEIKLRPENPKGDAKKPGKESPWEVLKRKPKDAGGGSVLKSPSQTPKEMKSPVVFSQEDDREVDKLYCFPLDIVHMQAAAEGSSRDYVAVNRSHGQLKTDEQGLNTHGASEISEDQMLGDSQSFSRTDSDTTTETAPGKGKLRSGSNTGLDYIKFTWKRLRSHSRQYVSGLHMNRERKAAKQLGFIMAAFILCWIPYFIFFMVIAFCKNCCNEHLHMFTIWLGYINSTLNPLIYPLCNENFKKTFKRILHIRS
Chain of Voltage-gated inwardly rectifying potassium channel KCNH2 (Q12809 whole entry): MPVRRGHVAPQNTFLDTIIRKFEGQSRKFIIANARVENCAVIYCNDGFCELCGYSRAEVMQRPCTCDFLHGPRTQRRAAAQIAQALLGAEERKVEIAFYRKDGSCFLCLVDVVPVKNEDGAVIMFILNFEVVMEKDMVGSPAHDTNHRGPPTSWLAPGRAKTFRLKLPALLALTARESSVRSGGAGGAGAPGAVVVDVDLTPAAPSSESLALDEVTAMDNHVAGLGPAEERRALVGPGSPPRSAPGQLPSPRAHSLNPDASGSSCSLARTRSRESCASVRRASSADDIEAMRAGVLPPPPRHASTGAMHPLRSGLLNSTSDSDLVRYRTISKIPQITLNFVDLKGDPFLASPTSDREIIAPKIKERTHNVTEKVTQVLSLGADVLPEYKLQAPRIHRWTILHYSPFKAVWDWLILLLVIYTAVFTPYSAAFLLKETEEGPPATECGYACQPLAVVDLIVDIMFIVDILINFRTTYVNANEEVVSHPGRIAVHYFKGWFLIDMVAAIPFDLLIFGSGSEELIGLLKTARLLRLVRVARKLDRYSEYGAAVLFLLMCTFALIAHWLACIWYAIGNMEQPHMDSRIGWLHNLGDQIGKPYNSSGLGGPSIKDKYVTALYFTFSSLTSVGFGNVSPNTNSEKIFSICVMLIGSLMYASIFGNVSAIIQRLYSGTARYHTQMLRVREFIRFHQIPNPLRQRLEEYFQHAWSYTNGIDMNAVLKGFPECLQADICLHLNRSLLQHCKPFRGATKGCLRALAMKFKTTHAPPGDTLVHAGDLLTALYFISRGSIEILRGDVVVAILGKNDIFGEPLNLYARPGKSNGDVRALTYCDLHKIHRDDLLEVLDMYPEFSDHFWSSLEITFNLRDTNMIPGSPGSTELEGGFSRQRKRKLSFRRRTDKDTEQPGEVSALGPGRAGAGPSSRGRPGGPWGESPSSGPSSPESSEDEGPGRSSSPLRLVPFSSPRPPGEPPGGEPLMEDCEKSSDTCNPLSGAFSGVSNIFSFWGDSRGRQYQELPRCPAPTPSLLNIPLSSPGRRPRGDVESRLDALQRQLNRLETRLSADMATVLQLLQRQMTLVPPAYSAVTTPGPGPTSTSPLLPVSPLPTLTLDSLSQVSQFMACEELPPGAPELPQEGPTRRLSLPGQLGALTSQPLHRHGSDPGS

Structure (SMILES)	Ki (Histamine H1 receptor [1]) [nM]	inhibition [2] [%]	logD (physchem)	Ki [3] [nM]	microsomal CLint (in vitro [4]; liver microsomes) [µL/min/mg]	microsomal CLint (in vitro [5]; liver microsomes) [µL/min/mg]	inhibition [6] [%]	IC50 [7] [nM]	also measured
N#Cc1cccc(OC[C@@H](O)CCN2CCC(Oc3ccc(Cl)c(Cl)c3)CC2)c1	0.316	> 70	> 4.5	31.6	< 3	22	> 70		
O=C(NC[C@@H](O)CN1CCC(Oc2ccc(Cl)c(Cl)c2)CC1)c1n[nH]c2ccccc12	7.94	> 70	2.9	1.58			> 70	251	
COc1cc(C(=O)NC[C@@H](O)CN2CCC(Oc3ccc(Cl)c(Cl)c3)CC2)ccc1N	63.1	> 70	3.1	3.98		18	> 70	251	half-life (in vivo [8]): 6.5 h; bioavailability [9]: 30%; hepatocyte CLint (in vitro [10]): 6 µL/min/1e6 cells; clearance (in vivo [11]): 56 mL/min/kg; Vd (in vivo [12]): 25 L/kg; hepatocyte CLint (in vitro [13]): < 2 µL/min/1e6 cells
O=C(Nc1ccccc1OCC(O)CN1CCC(Oc2ccc(Cl)c(Cl)c2)CC1)C1CCC1 (configuration not stated)				100					Ki [14]: 15.8 nM; IC50 (Histamine H1 receptor [15]): 5010 nM
CN(C[C@@H](O)CN1CCC(Oc2ccc(Cl)c(Cl)c2)CC1)C(=O)c1c[nH]c(=O)c2ccccc12		> 70	3.2	2.51			> 70	2000	
CS(=O)(=O)c1ccccc1C(=O)NC[C@@H](O)CN1CCC(Oc2ccc(Cl)c(Cl)c2)CC1	200	> 70	2.3	15.8		8	> 70		hepatocyte CLint (in vitro [10]): < 3 µL/min/1e6 cells; hepatocyte CLint (in vitro [13]): < 2 µL/min/1e6 cells
N#Cc1cccc(OC[C@@H](O)CNC2CCN(Cc3ccc(Cl)c(Cl)c3)CC2)c1	501	> 70	3.1	316		23	> 70		hepatocyte CLint (in vitro [10]): 7 µL/min/1e6 cells
COc1cccc(SC[C@@H](O)CN2CCC(Oc3ccc(Cl)c(Cl)c3)CC2)c1	20	> 70	> 4.5	126	17	49	> 70		
O=C(NC[C@@H](O)CN1CCC(Oc2ccc(Cl)c(Cl)c2)CC1)c1c[nH]c(=O)c2ccccc12		> 70							IC50 [14]: 5010 nM
N#Cc1cccc(OCCCN2CCC(Oc3ccc(Cl)c(Cl)c3)CC2)c1	12.6	> 70	> 4.5	794	3	129			
N#Cc1cccc(OC[C@@H](O)CN2CCC(Oc3ccc(Cl)c(Cl)c3)CC2)c1	3.16	> 70	> 4.5	251	< 3	23			
O=C(NC[C@@H](O)CN1CCC(Oc2ccc(Cl)c(Cl)c2)CC1)n1c(=O)[nH]c2ccccc21		> 70	4.5	2.51				501	
N#Cc1cccc(C(=O)NC[C@@H](O)CN2CCC(Oc3ccc(Cl)c(Cl)c3)CC2)c1	20	> 70	3.5	20			> 70		microsomal CLint (in vitro [4]; microsomes): 4 µL/min/mg; microsomal CLint (in vitro [5]; microsomes): 25 µL/min/mg

Further lines, with some results ahead:

Ki (Histamine H1 receptor [1]) [nM]	inhibition [2] [%]	logD (physchem)	Ki [3] [nM]	microsomal CLint (in vitro [4]; liver microsomes) [µL/min/mg]	microsomal CLint (in vitro [5]; liver microsomes) [µL/min/mg]	inhibition [6] [%]	Structure (SMILES)	IC50 [7] [nM]	also measured
	> 70	3.7	1.58				O=C(NC[C@@H](O)CN1CCC(Oc2ccc(Cl)c(Cl)c2)CC1)c1n[nH]c(=O)c2ccccc12		
3.98	> 70	3.5	7.94			> 70	O=C(NC[C@@H](O)CN1CCC(Oc2ccc(Cl)c(Cl)c2)CC1)c1cc(=O)[nH]c2ccccc12	> 10000	
31.6	> 70	3.9	2.51				O=C(NC[C@@H](O)CN1CCC(Oc2ccc(Cl)c(Cl)c2)CC1)c1c[nH]c2ccccc12	2000	
501	> 70		126	< 3		> 70	N#Cc1ccc(OC[C@@H](O)CNC2CCN(Cc3ccc(Cl)c(Cl)c3)CC2)cc1		
15.8	> 70	3.3	200		19	> 70	O=C(NC[C@@H](O)CN1CCC(Oc2ccc(Cl)c(Cl)c2)CC1)c1cn2cc(F)ccc2n1		hepatocyte CLint (in vitro [10]): 7 µL/min/1e6 cells
316	> 70		158	< 3		> 70	O[C@@H](CNC1CCN(Cc2ccc(Cl)c(Cl)c2)CC1)COc1ccc2ncsc2c1		
100	> 70	2.9	251		20	> 70	CS(=O)(=O)c1ccc(C(=O)NC[C@@H](O)CN2CCC(Oc3ccc(Cl)c(Cl)c3)CC2)s1		hepatocyte CLint (in vitro [10]): 3 µL/min/1e6 cells
12.6	> 70	3.3	12.6			> 70	O=C(NC[C@@H](O)CN1CCC(Oc2ccc(Cl)c(Cl)c2)CC1)c1cnnc2ccccc12	6310	
	> 70			7	13		N#Cc1cccc(S(=O)(=O)NC[C@@H](O)CN2CCC(Oc3ccc(Cl)c(Cl)c3)CC2)c1		
1260	> 70	1.2	79.4		< 3		CS(=O)(=O)c1ccccc1C(=O)NCC(O)CNC1CCN(Cc2ccc(Cl)c(Cl)c2)CC1 (configuration not stated)		half-life (in vivo [8]): 2.3 h; hepatocyte CLint (in vitro [10]): 4 µL/min/1e6 cells; clearance (in vivo [11]): 54 mL/min/kg; Vd (in vivo [12]): 9 L/kg
